Legend:
Details in all cases: 72 h
CAL-148 = tested on: CAL-148
In short: (§1)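 The reported EC50 was fitted from percent-inhibition dose-response curves and censored at the highest concentration. Breast cancer cell lines (20 µl suspension) were added to 384-well plates containing compound in 5 µl medium and incubated 72 h, and viability was read with 2.5 µl CellTiter-Blue over 2 h at 37 °C at 560/590 nm. Each plate was normalised to vehicle and a positive kill control and checked by Z'-factor, and rows with zero drug sensitivity score were dropped.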

CAL-51 = tested on: CAL-51
In short: as §1

CAL-85-1 = tested on: CAL-85-1
In short: as §1

DU-4475 = tested on: DU-4475
In short: as §1

HDQ-P1 [1] = tested on: HDQ-P1
In short: as §1

MDA-MB-453 = tested on: MDA-MB-453
In short: as §1

BT-474 [2] = tested on: BT-474
In short: as §1

BT-549 [3] = tested on: BT-549
In short: as §1

CAL-120 [4] = tested on: CAL-120
In short: as §1

HCC1143 = tested on: HCC1143
In short: as §1

HCC1937 = tested on: HCC1937
In short: as §1

Hs578T = tested on: Hs578T
In short: as §1

MDA-MB-231 [5] = tested on: MDA-MB-231
In short: as §1

MDA-MB-436 [6] = tested on: MDA-MB-436
In short: as §1

MDA-MB-468 [7] = tested on: MDA-MB-468
In short: as §1

MFM-223 [8] = tested on: MFM-223
In short: as §1

SK-BR-3 = tested on: SK-BR-3
In short: as §1

MDA-MB-468 [9] = tested on: MDA-MB-468; remark: listed apart in the source
Protocol: (§2)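 Drug sensitivity and resistance testing (DSRT) of breast cancer cell lines in 384-well plates, 5 concentrations in 10-fold dilutions over a compound-specific 10,000-fold range. After 72 h, cytotoxicity was read by CellTox Green fluorescence and viability by CellTiter-Glo luminescence (multiplexed), normalised to DMSO and benzethonium chloride controls. EC50 is the inflection point of the fitted dose-response curve (bottom asymptote free, so it can be relative for partial curves) and is censored at the highest tested concentration. Rows with DSS 0 (no meaningful response) were excluded.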

BT-474 [10] = tested on: BT-474; remark: listed apart in the source
In short: (§3)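 EC50 was fitted from dose-response curves and censored at the highest concentration tested. To build those curves, breast cancer cell lines (20 µl suspension) were seeded into 384-well plates containing compound at 5 concentrations in 10-fold steps over a compound-specific 10,000-fold range and incubated for 72 h. Readouts were CellTox Green fluorescence (485/520 nm) for cell death and then CellTiter-Glo luminescence for viability, with each plate normalised to 0.1 % DMSO and a positive kill control.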

BT-549 [11] = tested on: BT-549; remark: listed apart in the source
In short: as §3

CAL-120 [12] = tested on: CAL-120; remark: listed apart in the source
In short: as §3

HDQ-P1 [13] = tested on: HDQ-P1; remark: listed apart in the source
In short: as §3

MDA-MB-231 [14] = tested on: MDA-MB-231; remark: listed apart in the source
In short: as §3

MDA-MB-436 [15] = tested on: MDA-MB-436; remark: listed apart in the source
In short: as §3

MDA-MB-468 [16] = tested on: MDA-MB-468; remark: listed apart in the source
In short: as §3

MDA-MB-231 [17] = tested on: MDA-MB-231; remark: listed apart in the source
Protocol: as §2

MFM-223 [18] = tested on: MFM-223; remark: listed apart in the source
In short: as §3

Compound | EC50, CellTiter-Blue viability (CAL-148) | EC50, CellTiter-Blue viability (CAL-51) | EC50, CellTiter-Blue viability (CAL-85-1) | EC50, CellTiter-Blue viability (DU-4475) | EC50, CellTiter-Blue viability (HDQ-P1 [1]) | EC50, CellTiter-Blue viability (MDA-MB-453) | EC50, CellTiter-Blue viability (BT-474 [2]) | EC50, CellTiter-Blue viability (BT-549 [3]) | EC50, CellTiter-Blue viability (CAL-120 [4]) | EC50, CellTiter-Blue viability (HCC1143) | EC50, CellTiter-Blue viability (HCC1937) | EC50, CellTiter-Blue viability (Hs578T) | EC50, CellTiter-Blue viability (MDA-MB-231 [5]) | EC50, CellTiter-Blue viability (MDA-MB-436 [6]) | EC50, CellTiter-Blue viability (MDA-MB-468 [7]) | EC50, CellTiter-Blue viability (MFM-223 [8]) | EC50, CellTiter-Blue viability (SK-BR-3) | EC50, CellTox Green (MDA-MB-468 [9]) | EC50, CellTiter-Glo (BT-474 [10]) | EC50, CellTiter-Glo (BT-549 [11]) | EC50, CellTiter-Glo (CAL-120 [12]) | EC50, CellTiter-Glo (HDQ-P1 [13]) | EC50, CellTiter-Glo (MDA-MB-231 [14]) | EC50, CellTiter-Glo (MDA-MB-436 [15]) | EC50, CellTiter-Glo (MDA-MB-468 [16]) | EC50, CellTox Green (MDA-MB-231 [17]) | EC50, CellTiter-Glo (MFM-223 [18])
CCN(CC)CCCC(C)Nc1c2ccc(Cl)cc2nc2ccc(OC)cc12 (centres undefined) [Mepacrine] | 1140 nM | 1950 nM | 1800 nM | 1600 nM | 833 nM | 1260 nM | 1760 nM | 1440 nM | 1120 nM | 1520 nM | 519 nM | 1980 nM | 614 nM | 1290 nM | 1430 nM | 2220 nM | 1520 nM | > 50000 nM |  |  |  |  |  |  |  |  | 
CC[C@H](Nc1ncnc2[nH]cnc12)c1nc2cccc(F)c2c(=O)n1-c1ccccc1 [GS-1101] |  |  |  |  |  |  |  |  |  |  |  |  |  |  |  |  |  | 1430 nM | 2950 nM | 4670 nM | 8050 nM | 4300 nM | 4740 nM | 6900 nM | 7440 nM | 8630 nM | 
CNC(=O)c1cc(Oc2ccc(NC(=O)Nc3cc(C(C)(C)C)nn3-c3ccc4ncccc4c3)c(F)c2)ccn1 [Rebastinib] |  |  |  |  |  |  |  |  |  |  |  |  |  |  |  |  |  |  |  |  | 155 nM |  |  |  |  |  | 31.3 nM

— the supplement of paper PMC4862054
